In the supplement of paper PMC10307832 one finds relative viability data, which are given here for one cell line.

Holding throughout (assay): relative viability (nuclei count vs DMSO), 5 days (fraction); higher = more cells survive
Compound in the experiment “Etoposide + Pictilisib”: COc1cc([C@@H]2c3cc4c(cc3[C@@H](O[C@@H]3O[C@@H]5CO[C@@H](C)O[C@H]5[C@H](O)[C@H]3O)[C@H]3COC(=O)[C@H]23)OCO4)cc(OC)c1O [Etoposide] + CS(=O)(=O)N1CCN(Cc2cc3nc(-c4cccc5[nH]ncc45)nc(N4CCOCC4)c3s2)CC1 [Pictilisib] (partner 1 µM)
The essentials: (§1)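 Relative viability was taken as the ratio of nuclei in treated wells to nuclei in vehicle wells. Lung cancer cell lines in 1536-well plates received compounds by pin tool one day after seeding, either one drug alone or a fixed anchor-drug dose plus five library-drug doses (not always all listed) in √10 steps. Nuclei were counted on 4× images after 5 days of treatment, and values are medians of duplicate plates.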

Compound in the experiment “Etoposide + Crizotinib”: COc1cc([C@@H]2c3cc4c(cc3[C@@H](O[C@@H]3O[C@@H]5CO[C@@H](C)O[C@H]5[C@H](O)[C@H]3O)[C@H]3COC(=O)[C@H]23)OCO4)cc(OC)c1O [Etoposide] + C[C@@H](Oc1cc(-c2cnn(C3CCNCC3)c2)cnc1N)c1c(Cl)ccc(F)c1Cl [Crizotinib] (partner 1 µM)
The essentials: as §1

Compound in the experiment “Etoposide + Linsitinib”: COc1cc([C@@H]2c3cc4c(cc3[C@@H](O[C@@H]3O[C@@H]5CO[C@@H](C)O[C@H]5[C@H](O)[C@H]3O)[C@H]3COC(=O)[C@H]23)OCO4)cc(OC)c1O [Etoposide] + C[C@]1(O)C[C@@H](c2nc(-c3ccc4ccc(-c5ccccc5)nc4c3)c3c(N)nccn32)C1 [Linsitinib] (partner 1 µM)
In short, it runs like this: as §1

Compound in the experiment “Bleomycin + Foretinib”: CC1=C(N=C(N=C1N)[C@H](CC(=O)N)NC[C@@H](C(=O)N)N)C(=O)N[C@@H]([C@H](C2=CN=CN2)OC3C(C(C(C(O3)CO)O)O)OC4C(C(C(C(O4)CO)O)OC(=O)N)O)C(=O)N[C@H](C)[C@H]([C@H](C)C(=O)N[C@@H]([C@@H](C)O)C(=O)NCCC5=NC(=CS5)C6=NC(=CS6)C(=O)NCCC[S+](C)C)O [Bleomycin] + COc1cc2c(Oc3ccc(NC(=O)C4(C(=O)Nc5ccc(F)cc5)CC4)cc3F)ccnc2cc1OCCCN1CCOCC1 [Foretinib] (partner 0.25 µM)
The note with it: main component drawn. In short, it runs like this:
as §1

Consider UMC-11, for which the relative viability with Etoposide + Pictilisib (first compound 0.01 µM) came to 0.837; with Etoposide + Pictilisib (first compound 0.03162 µM), 0.938; in the experiment with Etoposide + Pictilisib (first compound 0.3162 µM), 0.339; with Etoposide + Pictilisib (first compound 1 µM), 0.194; with Etoposide + Crizotinib (first compound 0.01 µM), 0.703; with Etoposide + Crizotinib (first compound 0.03162 µM), 0.573. Moreover, the relative viability with Etoposide + Crizotinib (first compound 0.3162 µM) turned out to be 0.241; in the experiment with Etoposide + Crizotinib (first compound 1 µM) it was 0.146; with Etoposide + Linsitinib (first compound 0.01 µM), 0.962; in the experiment with Etoposide + Linsitinib (first compound 0.03162 µM), 1.05; with Etoposide + Linsitinib (first compound 0.3162 µM), 0.493; with Etoposide + Linsitinib (first compound 1 µM), 0.302. Moreover, the relative viability was found to be 0.93 with Bleomycin + Foretinib (first compound 0.01 µM); 1.02 with Bleomycin + Foretinib (first compound 0.03162 µM); 1.06 in the experiment with Bleomycin + Foretinib (first compound 0.1 µM); 0.742 with Bleomycin + Foretinib (first compound 0.3162 µM); 0.574 in the experiment with Bleomycin + Foretinib (first compound 1 µM).
